Assay results as given in paper PMC4207660, “Identification and Characterization of Hundreds of Potent and Selective Inhibitors of Trypanosoma brucei Growth from a Kinase-Targeted Library Screening Campaign” (PLoS Neglected Tropical Diseases, 2014).
Where two headings read alike, the source gives them in different places.

Legend:
[1] = molecular target: JNK1 (Homo sapiens, UniProt P45983); assay: Human kinase selectivity screening: JNK1; assay type: biochemical; details: read-out: JNK1 pIC50 values (converted)
Sequence of JNK1 (P45983 whole entry): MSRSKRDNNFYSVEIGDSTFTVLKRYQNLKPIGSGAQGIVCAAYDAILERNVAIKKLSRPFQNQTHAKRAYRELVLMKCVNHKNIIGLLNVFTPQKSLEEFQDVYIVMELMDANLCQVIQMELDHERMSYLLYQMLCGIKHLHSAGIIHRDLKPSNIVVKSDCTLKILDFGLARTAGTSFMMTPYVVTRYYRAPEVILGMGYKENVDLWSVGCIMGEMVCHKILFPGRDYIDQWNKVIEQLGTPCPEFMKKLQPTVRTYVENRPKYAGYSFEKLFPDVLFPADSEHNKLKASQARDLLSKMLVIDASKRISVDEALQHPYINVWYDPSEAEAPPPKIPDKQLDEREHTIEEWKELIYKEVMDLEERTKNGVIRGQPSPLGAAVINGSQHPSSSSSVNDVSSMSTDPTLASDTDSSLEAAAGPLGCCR
Excerpt: (§1) These kinases were chosen for general selectivity screening owing to their broad representation of the human kinome.

[2] = molecular target: T1, IKK2 (Homo sapiens, UniProt O14920); assay: Human kinase selectivity screening: IKK2; assay type: biochemical; details: read-out: IKK2 pIC50 values (converted)
T1 sequence (O14920 1-756): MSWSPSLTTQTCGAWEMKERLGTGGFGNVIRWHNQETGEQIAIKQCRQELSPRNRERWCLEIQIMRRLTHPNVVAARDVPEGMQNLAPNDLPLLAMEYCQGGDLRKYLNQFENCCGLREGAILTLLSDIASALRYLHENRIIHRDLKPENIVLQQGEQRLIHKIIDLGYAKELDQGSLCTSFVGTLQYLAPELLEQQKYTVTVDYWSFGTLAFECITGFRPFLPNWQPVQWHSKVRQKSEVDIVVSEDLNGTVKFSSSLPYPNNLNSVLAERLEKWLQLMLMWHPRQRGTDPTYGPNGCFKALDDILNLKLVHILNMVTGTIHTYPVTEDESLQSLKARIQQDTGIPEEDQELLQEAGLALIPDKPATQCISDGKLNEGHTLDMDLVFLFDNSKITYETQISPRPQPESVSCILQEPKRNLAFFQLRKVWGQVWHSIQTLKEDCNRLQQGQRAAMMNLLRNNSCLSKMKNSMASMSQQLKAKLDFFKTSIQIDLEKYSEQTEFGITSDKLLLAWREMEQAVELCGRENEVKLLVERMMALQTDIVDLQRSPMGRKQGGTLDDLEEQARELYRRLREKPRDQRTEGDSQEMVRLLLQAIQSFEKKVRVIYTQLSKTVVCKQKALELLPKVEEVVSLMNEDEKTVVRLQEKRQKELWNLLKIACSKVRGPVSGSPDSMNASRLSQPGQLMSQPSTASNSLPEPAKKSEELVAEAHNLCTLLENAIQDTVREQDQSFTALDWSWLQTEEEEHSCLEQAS
Excerpt: as §1

[3] = molecular target: EGFR (Homo sapiens, UniProt P00533); assay: Human kinase selectivity screening: EGFR; assay type: biochemical; details: read-out: EGFR pIC50 values (converted)
Excerpt: as §1

[4] = molecular target: T2, P38A (Homo sapiens, UniProt Q16539); assay: biochemical
T2 construct: variant as stated: P38A
T2 sequence (Q16539 2-360): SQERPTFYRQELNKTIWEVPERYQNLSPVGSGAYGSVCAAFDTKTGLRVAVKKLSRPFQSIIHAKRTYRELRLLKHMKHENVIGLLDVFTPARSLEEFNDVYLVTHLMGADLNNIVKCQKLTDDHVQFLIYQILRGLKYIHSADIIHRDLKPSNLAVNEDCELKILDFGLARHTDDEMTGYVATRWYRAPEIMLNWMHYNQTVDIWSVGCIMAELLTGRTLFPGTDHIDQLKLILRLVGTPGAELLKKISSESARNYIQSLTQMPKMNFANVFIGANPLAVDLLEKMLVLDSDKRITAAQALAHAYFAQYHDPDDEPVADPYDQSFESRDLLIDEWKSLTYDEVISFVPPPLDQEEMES
Excerpt: as §1

[5] = molecular target: T3, ITK (Homo sapiens, UniProt Q08881); assay: Human kinase selectivity screening: ITK; assay type: biochemical; details: read-out: ITK pIC50 values (converted)
T3 sequence (Q08881 1-620): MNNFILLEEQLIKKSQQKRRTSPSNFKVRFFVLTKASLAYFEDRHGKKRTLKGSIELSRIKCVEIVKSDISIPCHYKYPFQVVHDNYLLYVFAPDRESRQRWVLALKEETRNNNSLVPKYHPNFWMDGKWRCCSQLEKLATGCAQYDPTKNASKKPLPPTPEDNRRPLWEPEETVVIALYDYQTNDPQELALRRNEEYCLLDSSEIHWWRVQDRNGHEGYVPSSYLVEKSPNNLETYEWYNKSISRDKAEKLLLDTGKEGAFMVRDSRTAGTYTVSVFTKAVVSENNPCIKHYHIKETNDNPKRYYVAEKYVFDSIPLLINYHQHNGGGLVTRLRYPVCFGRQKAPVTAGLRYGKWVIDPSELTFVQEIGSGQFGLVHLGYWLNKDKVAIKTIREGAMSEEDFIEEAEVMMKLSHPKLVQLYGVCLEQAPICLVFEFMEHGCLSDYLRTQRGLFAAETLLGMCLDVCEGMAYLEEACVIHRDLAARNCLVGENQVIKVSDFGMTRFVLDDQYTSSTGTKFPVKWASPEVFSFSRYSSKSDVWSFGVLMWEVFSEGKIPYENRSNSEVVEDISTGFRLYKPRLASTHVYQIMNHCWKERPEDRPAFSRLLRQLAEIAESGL
Excerpt: as §1

[6] = molecular target: LRRK2 (Homo sapiens, UniProt Q5S007); assay: Human kinase selectivity screening: LRRK2; assay type: biochemical; details: read-out: LRRK2 pIC50 values (converted)
Sequence of LRRK2 (Q5S007 whole entry): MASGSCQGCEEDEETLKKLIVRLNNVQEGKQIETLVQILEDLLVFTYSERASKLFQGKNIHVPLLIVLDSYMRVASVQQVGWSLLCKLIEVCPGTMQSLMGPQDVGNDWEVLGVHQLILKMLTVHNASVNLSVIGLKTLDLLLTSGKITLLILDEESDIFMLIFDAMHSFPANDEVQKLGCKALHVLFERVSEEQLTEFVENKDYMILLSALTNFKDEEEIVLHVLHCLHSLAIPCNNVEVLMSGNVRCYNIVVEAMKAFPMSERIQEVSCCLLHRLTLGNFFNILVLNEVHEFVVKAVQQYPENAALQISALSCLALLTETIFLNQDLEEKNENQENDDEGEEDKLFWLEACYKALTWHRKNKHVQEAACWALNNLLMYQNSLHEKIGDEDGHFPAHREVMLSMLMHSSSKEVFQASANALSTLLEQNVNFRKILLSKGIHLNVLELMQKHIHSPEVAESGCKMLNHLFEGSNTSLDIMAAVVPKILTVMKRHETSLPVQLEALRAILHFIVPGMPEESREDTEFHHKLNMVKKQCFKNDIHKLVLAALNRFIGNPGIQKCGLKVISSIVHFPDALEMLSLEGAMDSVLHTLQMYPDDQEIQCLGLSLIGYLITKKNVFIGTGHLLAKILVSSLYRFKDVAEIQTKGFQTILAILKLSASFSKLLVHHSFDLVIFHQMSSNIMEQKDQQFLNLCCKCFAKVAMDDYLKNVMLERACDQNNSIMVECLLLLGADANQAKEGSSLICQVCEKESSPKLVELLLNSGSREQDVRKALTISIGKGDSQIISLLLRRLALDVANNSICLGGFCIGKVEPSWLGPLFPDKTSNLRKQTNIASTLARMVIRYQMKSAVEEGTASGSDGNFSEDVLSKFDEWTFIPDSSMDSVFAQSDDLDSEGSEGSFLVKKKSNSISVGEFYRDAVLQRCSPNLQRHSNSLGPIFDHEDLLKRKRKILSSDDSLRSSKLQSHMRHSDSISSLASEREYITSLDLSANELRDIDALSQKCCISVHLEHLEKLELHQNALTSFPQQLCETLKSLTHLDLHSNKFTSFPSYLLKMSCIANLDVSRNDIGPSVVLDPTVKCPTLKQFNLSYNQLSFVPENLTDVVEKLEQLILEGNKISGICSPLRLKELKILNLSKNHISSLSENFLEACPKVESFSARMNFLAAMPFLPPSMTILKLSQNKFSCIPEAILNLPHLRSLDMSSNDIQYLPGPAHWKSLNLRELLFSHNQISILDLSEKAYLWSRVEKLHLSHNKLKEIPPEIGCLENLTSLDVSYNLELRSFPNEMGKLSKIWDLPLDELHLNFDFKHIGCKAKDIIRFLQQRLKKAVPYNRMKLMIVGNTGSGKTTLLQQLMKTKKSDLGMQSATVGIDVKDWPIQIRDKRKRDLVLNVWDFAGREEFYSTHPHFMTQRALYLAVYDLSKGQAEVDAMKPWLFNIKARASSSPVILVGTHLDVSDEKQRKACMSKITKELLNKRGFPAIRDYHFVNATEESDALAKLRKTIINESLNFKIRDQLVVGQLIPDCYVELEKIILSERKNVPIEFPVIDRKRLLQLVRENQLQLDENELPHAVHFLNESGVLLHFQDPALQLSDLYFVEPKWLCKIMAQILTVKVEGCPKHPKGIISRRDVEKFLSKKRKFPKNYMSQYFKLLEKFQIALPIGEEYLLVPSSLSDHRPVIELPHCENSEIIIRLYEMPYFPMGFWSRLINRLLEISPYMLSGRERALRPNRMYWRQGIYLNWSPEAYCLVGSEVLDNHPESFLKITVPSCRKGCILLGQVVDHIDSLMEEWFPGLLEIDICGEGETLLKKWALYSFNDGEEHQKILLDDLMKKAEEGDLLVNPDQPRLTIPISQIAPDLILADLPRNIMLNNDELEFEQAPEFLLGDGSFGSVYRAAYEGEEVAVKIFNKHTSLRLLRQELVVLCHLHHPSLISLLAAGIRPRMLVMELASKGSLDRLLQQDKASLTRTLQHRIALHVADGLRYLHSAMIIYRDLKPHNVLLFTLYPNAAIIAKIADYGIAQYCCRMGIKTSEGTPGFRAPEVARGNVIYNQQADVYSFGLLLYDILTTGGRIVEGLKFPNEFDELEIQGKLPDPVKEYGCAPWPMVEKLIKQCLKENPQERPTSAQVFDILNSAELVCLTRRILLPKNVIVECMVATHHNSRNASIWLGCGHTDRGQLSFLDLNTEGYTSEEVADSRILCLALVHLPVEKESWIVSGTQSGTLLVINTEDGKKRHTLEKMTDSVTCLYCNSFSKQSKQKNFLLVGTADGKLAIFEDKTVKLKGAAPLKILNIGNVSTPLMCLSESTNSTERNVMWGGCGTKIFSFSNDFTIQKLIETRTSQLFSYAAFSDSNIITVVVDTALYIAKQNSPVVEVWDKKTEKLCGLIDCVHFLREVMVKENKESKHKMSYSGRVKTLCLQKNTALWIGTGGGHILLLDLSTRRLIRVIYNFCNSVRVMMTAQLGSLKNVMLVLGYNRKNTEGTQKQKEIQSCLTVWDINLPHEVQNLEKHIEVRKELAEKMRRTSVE
Excerpt: as §1

[7] = molecular target: Cytochrome P450 (CYP450) (Homo sapiens, UniProt P08684); assay: Cytochrome P450 inhibition profile; assay type: in vitro ADME; details: Measured
Sequence of Cytochrome P450 (CYP450) (P08684 2-503 limits assumed): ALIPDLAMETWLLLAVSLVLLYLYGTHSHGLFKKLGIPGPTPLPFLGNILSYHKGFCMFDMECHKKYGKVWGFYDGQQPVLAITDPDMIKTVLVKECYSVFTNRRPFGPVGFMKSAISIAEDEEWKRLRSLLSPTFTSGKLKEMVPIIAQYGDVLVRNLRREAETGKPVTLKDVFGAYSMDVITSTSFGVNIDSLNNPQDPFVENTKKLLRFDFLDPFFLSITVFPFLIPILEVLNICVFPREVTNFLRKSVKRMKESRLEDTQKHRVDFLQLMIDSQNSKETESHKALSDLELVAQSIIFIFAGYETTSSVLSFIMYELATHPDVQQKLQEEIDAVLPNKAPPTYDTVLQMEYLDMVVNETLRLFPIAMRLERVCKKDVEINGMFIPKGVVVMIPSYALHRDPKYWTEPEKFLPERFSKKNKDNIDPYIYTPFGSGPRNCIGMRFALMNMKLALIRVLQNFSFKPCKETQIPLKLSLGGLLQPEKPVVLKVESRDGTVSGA
Description: The P450 inhibition profile of the inhibitors was determined as previously described.

[8] = molecular target: LCK (Homo sapiens, UniProt P06239); assay: Human kinase selectivity screening: LCK; assay type: biochemical; details: read-out: LCK pIC50 values (converted)
Sequence of LCK (P06239 whole entry): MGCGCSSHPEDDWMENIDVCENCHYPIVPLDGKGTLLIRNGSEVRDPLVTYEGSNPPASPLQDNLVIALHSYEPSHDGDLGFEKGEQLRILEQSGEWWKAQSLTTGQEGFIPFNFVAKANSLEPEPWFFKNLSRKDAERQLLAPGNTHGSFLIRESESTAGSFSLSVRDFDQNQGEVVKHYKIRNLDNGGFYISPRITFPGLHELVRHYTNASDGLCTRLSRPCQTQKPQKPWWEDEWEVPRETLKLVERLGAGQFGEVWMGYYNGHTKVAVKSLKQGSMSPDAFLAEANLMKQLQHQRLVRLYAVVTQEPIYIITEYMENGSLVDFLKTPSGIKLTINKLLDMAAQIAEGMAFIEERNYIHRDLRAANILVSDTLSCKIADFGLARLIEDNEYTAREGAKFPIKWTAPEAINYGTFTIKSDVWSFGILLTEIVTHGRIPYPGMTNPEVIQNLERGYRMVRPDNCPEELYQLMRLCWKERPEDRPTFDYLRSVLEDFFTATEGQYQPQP
Excerpt: as §1

[9] = molecular target: AURB (Homo sapiens, UniProt Q96GD4); assay: Human kinase selectivity screening: AURB; assay type: biochemical; details: read-out: AURB pIC50 values (converted)
Sequence of AURB (Q96GD4 whole entry): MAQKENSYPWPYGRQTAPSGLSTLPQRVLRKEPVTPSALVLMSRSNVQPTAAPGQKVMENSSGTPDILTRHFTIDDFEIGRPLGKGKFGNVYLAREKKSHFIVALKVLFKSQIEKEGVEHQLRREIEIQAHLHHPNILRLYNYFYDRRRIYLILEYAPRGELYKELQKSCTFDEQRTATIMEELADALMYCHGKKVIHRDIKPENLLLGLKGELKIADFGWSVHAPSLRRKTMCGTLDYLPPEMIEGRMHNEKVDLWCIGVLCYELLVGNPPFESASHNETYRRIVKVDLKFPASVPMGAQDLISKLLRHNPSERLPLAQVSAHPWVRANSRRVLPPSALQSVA
Excerpt: as §1

[10] = CYP3A4, VG substrate, read-out: CYP3A4VG pXC50 (converted)
[11] = CYP3A4, VR substrate, read-out: CYP3A4VR pXC50 (converted)

| Structure (SMILES) | IC50 [1] [µM] | IC50 [2] [µM] | IC50 [3] [µM] | IC50 [4] [µM] | IC50 [5] [µM] | IC50 [6] [µM] | IC50 [7, 10] [µM] | IC50 [7, 11] [µM] | IC50 [8] [µM] | IC50 [9] [µM] |
| --- | --- | --- | --- | --- | --- | --- | --- | --- | --- | --- |
| O=S1(=O)Cc2ccc(Nc3nccc(-c4ccc(F)cc4)n3)cc2C1 [NEU-0001142] | 0.2 | 0.501 | > 25.1 | 25.1 | > 25.1 | 0.0398 | 2.51 | 10 | 2.51 | 0.0631 |
| CN(C)Cc1ccc(-c2[nH]c3ncc(C#N)cc3c2-c2ccccc2)cc1 [NEU-0001206] | > 25.1 | > 25.1 | 2.51 | > 25.1 | 0.0126 | 0.126 | – | > 50.1 | 0.0501 | 0.0398 |
| CCCCc1nc(Nc2cccc(C)c2)c2c(=O)[nH]ccc2n1 [NEU-0001191] | 2 | > 25.1 | > 25.1 | > 25.1 | > 25.1 | 0.0631 | 0.0794 | 6.31 | > 25.1 | 0.158 |
| Cn1cc(-c2cnc3[nH]cc(-c4cccc(C#N)c4)c3c2)cn1 [NEU-0001207] | 0.501 | 2 | 5.01 | > 25.1 | 1 | 0.0794 | 1.26 | 20 | 2.51 | 1.26 |
| O=C(Nc1ccc(-c2ccnc3[nH]ccc23)s1)C1(Cc2ccccc2)CCCNC1 (stereo not drawn) [NEU-0001240] | > 25.1 | 0.501 | > 25.1 | > 25.1 | 0.316 | 0.316 | 1.26 | 1.58 | 1.58 | 0.000501 |
| Cc1cc(Nc2cc(C3CC3)[nH]n2)nc(N2CCCCC2)n1 [NEU-0001127] | 1 | > 25.1 | > 25.1 | > 25.1 | 1 | 3.98 | 10 | > 50.1 | 1 | 0.158 |
| CCCNc1nc(Nc2cnn(C)c2)c2c(=O)[nH]ccc2n1 [NEU-0001187] | 0.501 | 3.98 | 1.26 | > 25.1 | 0.0631 | 0.0158 | 3.98 | > 50.1 | 0.2 | 0.00794 |
